Measured values reported in BindingDB's records for patent US9701669 (Merck Sharp & Dohme Corp, 2017).

Target: T1, Proteinase-activated receptor 1 (Homo sapiens, UniProt P25116)
T1 sequence (P25116 whole entry): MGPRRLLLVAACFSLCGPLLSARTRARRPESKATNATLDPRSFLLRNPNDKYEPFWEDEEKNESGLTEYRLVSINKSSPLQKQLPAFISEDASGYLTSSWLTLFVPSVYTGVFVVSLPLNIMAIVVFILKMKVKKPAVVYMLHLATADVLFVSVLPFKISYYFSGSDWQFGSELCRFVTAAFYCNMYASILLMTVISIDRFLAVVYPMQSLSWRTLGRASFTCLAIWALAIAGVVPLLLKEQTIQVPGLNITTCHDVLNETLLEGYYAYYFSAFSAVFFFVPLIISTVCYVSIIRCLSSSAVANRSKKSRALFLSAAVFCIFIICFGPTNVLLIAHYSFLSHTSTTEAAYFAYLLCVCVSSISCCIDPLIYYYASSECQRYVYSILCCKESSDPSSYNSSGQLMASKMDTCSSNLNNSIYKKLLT
Assay: PAR-1 FLIPR Assay
Experimental: Media was then removed from the cells, incubated with 33 ul of Calcium-5 dye in assay buffer (Hank's buffer containing 20 mM HEPES, 0.04% Chaps and 2.5 mM Probenecid) for 60 minutes at 37° C. 2 uL of varying concentrations of compound in 40% DMSO in assay buffer (final DMSO concentration is 2.3%) were then added to the cells and incubated at 25° C. for 30 minutes. […] The range of peptide was from 1.5-3 μM. The final volume was 40 uL/well, with 2% DMSO. […] The data were analyzed by taking the peak signal over a portion of the range of the 60 scans and dividing this signal by the minimum signal for that same range.

Cc1nc(/C=C/[C@@H]2[C@@H]3[C@@H](C)OC(=O)[C@]3(C(N)=O)CC(F)(F)[C@H]2C)ccc1-c1ccccc1C#N [US9701669, 4]
IC50: 6.92 nM
